# System: T47D cells expressing mutant PI3Ka (H1047R)
# Test: In vitro cell proliferation, T47D cells (CellTiter-Glo)
# Format: cell-based
# Conditions: Homo sapiens, T47D, 72 h, inhibition of proliferation, read-out: Avg T-47D EC50
# Method in brief: (§1)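 Proliferation was read by CellTiter-Glo luminescence after 72 h of exposure to 10-point compound dilutions at 37 °C and 5% CO2. T47D (RPMI, 10% FBS, insulin 0.2 units/mL) and SKBR3 (McCoys 5a, 10% FBS) cells were seeded at 1,500 cells/well. EC50 was fitted from inhibition relative to DMSO and 10 uM Alpelisib.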
row,SMILES,EC50 [µM]
1,Cc1nc(N2CCN(c3cc4c([C@@H](C)Nc5cccc(F)c5C(=O)O)cc(F)cc4c(=O)n3C)CC2)cs1 [Example 490],0.001 to 0.5
2,Cc1nc(N2CCN(c3cc4c([C@@H](C)Nc5ccccc5C(=O)O)cc(F)cc4c(=O)n3C)CC2)cs1 [Example 491],0.001 to 0.5
3,Cc1cnc(N2CCN(c3cc4c([C@@H](C)Nc5ccccc5C(=O)O)cc(F)cc4c(=O)n3C)CC2)c(C)n1 [Example 492],0.001 to 0.5
4,Cc1ncc(N2CCN(c3cc4c([C@@H](C)Nc5ccccc5C(=O)O)cc(F)cc4c(=O)n3C)CC2)c(C)n1 [Example 495],0.001 to 0.5
5,C[C@@H](Nc1ccccc1C(=O)O)c1cc(F)cc2c(=O)n(C)c(-c3cc(F)c4nn(C(F)F)cc4c3)cc12 [Example 496],0.5 to 2
6,C[C@@H](Nc1ccccc1C(=O)O)c1cc(F)cc2c(=O)n(C)c(-c3ccc(OC4CC4)nc3)cc12 [Example 497],0.001 to 0.5
7,CC(=O)N1CCN(c2cc3c([C@@H](C)Nc4ccccc4C(=O)O)cc(C)cc3c(=O)n2C)CC1 [Example 498],0.5 to 2

# Same assay, conditions: inhibition of proliferation, 72 hours, read-out: Avg T-47D EC50
row,SMILES,EC50 [µM]
1,CC(Nc1ccccc1C(=O)O)c1cc(F)cc2c(=O)n(C)c(-c3ccc(OC4CC(F)C4)nc3)cc12 (stereo not shown) [Example 447],0.001 to 0.5
2,CC(Nc1ccccc1C(=O)O)c1cc(F)cc2c(=O)n(C)c(-c3ccc(OC4CC(F)C4)nc3)cc12 (stereo not shown) [Example 448],0.001 to 0.5
3,CC(Nc1cccc(F)c1C(=O)O)c1cc(F)cc2c(=O)n(C)c(-c3ccc(OCC(F)F)nc3)cc12 (stereo not shown) [Example 457],0.001 to 0.5
4,Cc1ncc(-c2ncc(-c3cc4c(C(C)Nc5ccccc5C(=O)O)cc(F)cc4c(=O)n3C)cc2F)cc1F (stereo not shown) [Example 459],0.001 to 0.5
5,Cc1ccc(N2CCN(c3cc4c(C(C)Nc5ccccc5C(=O)O)cc(F)cc4c(=O)n3C)CC2)c(C)n1 (stereo not shown) [Example 460],0.001 to 0.5
6,CC(Nc1ccccc1C(=O)O)c1cc(F)cc2c(=O)n(C)c(-c3ccc(OCC(F)F)nc3)cc12 (stereo not shown) [Example 462],0.001 to 0.5
7,Cc1nc(C)c(-c2ncc(-c3cc4c(C(C)Nc5ccccc5C(=O)O)cc(F)cc4c(=O)n3C)cc2F)cc1F (stereo not shown) [Example 471],0.001 to 0.5
8,Cc1ccc(-c2ncc(-c3cc4c(C(C)Nc5ccccc5C(=O)O)cc(F)cc4c(=O)n3C)cc2F)cn1 (stereo not shown) [Example 473],0.001 to 0.5
9,Cc1cc(C(C)Nc2cccc(F)c2C(=O)O)c2cc(-c3ccc(COC(F)(F)F)nc3)n(C)c(=O)c2c1 (stereo not shown) [Example 474],0.001 to 0.5

# System: SKBR3 cells express WT PI3Ka
# Test: In vitro cell proliferation, SKBR3 cells (CellTiter-Glo)
# Format: cell-based
# Conditions: Homo sapiens, SK-BR-3, 72 h, inhibition of proliferation
# Method in brief: as §1
row,SMILES,EC50 [µM]
1,Cc1nc(N2CCN(c3cc4c([C@@H](C)Nc5cccc(F)c5C(=O)O)cc(F)cc4c(=O)n3C)CC2)cs1 [Example 490],2 to 15
2,Cc1nc(N2CCN(c3cc4c([C@@H](C)Nc5ccccc5C(=O)O)cc(F)cc4c(=O)n3C)CC2)cs1 [Example 491],2 to 15
3,Cc1cnc(N2CCN(c3cc4c([C@@H](C)Nc5ccccc5C(=O)O)cc(F)cc4c(=O)n3C)CC2)c(C)n1 [Example 492],2 to 15
4,Cc1ncc(N2CCN(c3cc4c([C@@H](C)Nc5ccccc5C(=O)O)cc(F)cc4c(=O)n3C)CC2)c(C)n1 [Example 495],2 to 15
5,C[C@@H](Nc1ccccc1C(=O)O)c1cc(F)cc2c(=O)n(C)c(-c3cc(F)c4nn(C(F)F)cc4c3)cc12 [Example 496],> 15
6,C[C@@H](Nc1ccccc1C(=O)O)c1cc(F)cc2c(=O)n(C)c(-c3ccc(OC4CC4)nc3)cc12 [Example 497],> 15
7,CC(=O)N1CCN(c2cc3c([C@@H](C)Nc4ccccc4C(=O)O)cc(C)cc3c(=O)n2C)CC1 [Example 498],> 15

# Same assay, conditions: inhibition of proliferation, 72 hours
row,SMILES,EC50 [µM]
1,CC(Nc1ccccc1C(=O)O)c1cc(F)cc2c(=O)n(C)c(-c3ccc(OC4CC(F)C4)nc3)cc12 (stereo not shown) [Example 447],> 15
2,CC(Nc1ccccc1C(=O)O)c1cc(F)cc2c(=O)n(C)c(-c3ccc(OC4CC(F)C4)nc3)cc12 (stereo not shown) [Example 448],> 15
3,CC(Nc1cccc(F)c1C(=O)O)c1cc(F)cc2c(=O)n(C)c(-c3ccc(OCC(F)F)nc3)cc12 (stereo not shown) [Example 457],> 15
4,Cc1ncc(-c2ncc(-c3cc4c(C(C)Nc5ccccc5C(=O)O)cc(F)cc4c(=O)n3C)cc2F)cc1F (stereo not shown) [Example 459],2 to 15
5,Cc1ccc(N2CCN(c3cc4c(C(C)Nc5ccccc5C(=O)O)cc(F)cc4c(=O)n3C)CC2)c(C)n1 (stereo not shown) [Example 460],0.5 to 2
6,CC(Nc1ccccc1C(=O)O)c1cc(F)cc2c(=O)n(C)c(-c3ccc(OCC(F)F)nc3)cc12 (stereo not shown) [Example 462],> 15
7,Cc1nc(C)c(-c2ncc(-c3cc4c(C(C)Nc5ccccc5C(=O)O)cc(F)cc4c(=O)n3C)cc2F)cc1F (stereo not shown) [Example 471],2 to 15
8,Cc1ccc(-c2ncc(-c3cc4c(C(C)Nc5ccccc5C(=O)O)cc(F)cc4c(=O)n3C)cc2F)cn1 (stereo not shown) [Example 473],> 15
9,Cc1cc(C(C)Nc2cccc(F)c2C(=O)O)c2cc(-c3ccc(COC(F)(F)F)nc3)n(C)c(=O)c2c1 (stereo not shown) [Example 474],> 15

# System: phosphorylation of AKT (pAKT) in T47D cells expressing mutant PI3Ka (H1047R)
# Test: In vitro cell pAKT (Ser473) HTRF, T47D cells
# Format: cell-based
# Conditions: Homo sapiens, T47D, 6 h, cellular pAKT, T47D cells, mutant PI3Ka (H1047R), 6 hours; read-out: Avg T-47D IC50
# Method in brief: (§2)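 pAKT (Ser473) was quantified by HTRF in lysates from cells exposed 6 h at 37 °C to 10-point compound series, with T47D in insulin-supplemented RPMI/10% FBS and SKBR3 in McCoy's 5a/10% FBS. Controls: 0.1% DMSO (high) and 10 uM alpelisib (low). IC50 from sigmoidal curve fitting.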
row,SMILES,IC50 [µM]
1,Cc1nc(N2CCN(c3cc4c([C@@H](C)Nc5cccc(F)c5C(=O)O)cc(F)cc4c(=O)n3C)CC2)cs1 [Example 490],0.001 to 0.5
2,Cc1nc(N2CCN(c3cc4c([C@@H](C)Nc5ccccc5C(=O)O)cc(F)cc4c(=O)n3C)CC2)cs1 [Example 491],0.001 to 0.5
3,Cc1cnc(N2CCN(c3cc4c([C@@H](C)Nc5ccccc5C(=O)O)cc(F)cc4c(=O)n3C)CC2)c(C)n1 [Example 492],0.001 to 0.5
4,Cc1ncc(N2CCN(c3cc4c([C@@H](C)Nc5ccccc5C(=O)O)cc(F)cc4c(=O)n3C)CC2)c(C)n1 [Example 495],0.001 to 0.5
5,C[C@@H](Nc1ccccc1C(=O)O)c1cc(F)cc2c(=O)n(C)c(-c3cc(F)c4nn(C(F)F)cc4c3)cc12 [Example 496],0.001 to 0.5
6,C[C@@H](Nc1ccccc1C(=O)O)c1cc(F)cc2c(=O)n(C)c(-c3ccc(OC4CC4)nc3)cc12 [Example 497],0.001 to 0.5
7,CC(=O)N1CCN(c2cc3c([C@@H](C)Nc4ccccc4C(=O)O)cc(C)cc3c(=O)n2C)CC1 [Example 498],0.5 to 2

# Same assay, conditions: cellular pAKT, T47D cells, mutant PI3Ka (H1047R), 6 hours; read-out: Avg T-47D IC50
row,SMILES,IC50 [µM]
1,CC(Nc1ccccc1C(=O)O)c1cc(F)cc2c(=O)n(C)c(-c3ccc(OC4CC(F)C4)nc3)cc12 (stereo not shown) [Example 447],0.001 to 0.5
2,CC(Nc1ccccc1C(=O)O)c1cc(F)cc2c(=O)n(C)c(-c3ccc(OC4CC(F)C4)nc3)cc12 (stereo not shown) [Example 448],0.001 to 0.5
3,CC(Nc1cccc(F)c1C(=O)O)c1cc(F)cc2c(=O)n(C)c(-c3ccc(OCC(F)F)nc3)cc12 (stereo not shown) [Example 457],0.001 to 0.5
4,Cc1ncc(-c2ncc(-c3cc4c(C(C)Nc5ccccc5C(=O)O)cc(F)cc4c(=O)n3C)cc2F)cc1F (stereo not shown) [Example 459],0.001 to 0.5
5,Cc1ccc(N2CCN(c3cc4c(C(C)Nc5ccccc5C(=O)O)cc(F)cc4c(=O)n3C)CC2)c(C)n1 (stereo not shown) [Example 460],0.001 to 0.5
6,CC(Nc1ccccc1C(=O)O)c1cc(F)cc2c(=O)n(C)c(-c3ccc(OCC(F)F)nc3)cc12 (stereo not shown) [Example 462],0.001 to 0.5
7,Cc1nc(C)c(-c2ncc(-c3cc4c(C(C)Nc5ccccc5C(=O)O)cc(F)cc4c(=O)n3C)cc2F)cc1F (stereo not shown) [Example 471],0.001 to 0.5
8,Cc1ccc(-c2ncc(-c3cc4c(C(C)Nc5ccccc5C(=O)O)cc(F)cc4c(=O)n3C)cc2F)cn1 (stereo not shown) [Example 473],0.001 to 0.5
9,Cc1cc(C(C)Nc2cccc(F)c2C(=O)O)c2cc(-c3ccc(COC(F)(F)F)nc3)n(C)c(=O)c2c1 (stereo not shown) [Example 474],0.001 to 0.5

# System: phosphorylation of AKT (pAKT) in SKBR3 cells express WT PI3Ka
# Test: In vitro cell pAKT (Ser473) HTRF, SKBR3 cells
# Format: cell-based
# Conditions: Homo sapiens, SK-BR-3, 6 h, cellular pAKT
# Method in brief: as §2
row,SMILES,IC50 [µM]
1,Cc1nc(N2CCN(c3cc4c([C@@H](C)Nc5cccc(F)c5C(=O)O)cc(F)cc4c(=O)n3C)CC2)cs1 [Example 490],2 to 15
2,Cc1nc(N2CCN(c3cc4c([C@@H](C)Nc5ccccc5C(=O)O)cc(F)cc4c(=O)n3C)CC2)cs1 [Example 491],2 to 15
3,Cc1cnc(N2CCN(c3cc4c([C@@H](C)Nc5ccccc5C(=O)O)cc(F)cc4c(=O)n3C)CC2)c(C)n1 [Example 492],2 to 15
4,Cc1ncc(N2CCN(c3cc4c([C@@H](C)Nc5ccccc5C(=O)O)cc(F)cc4c(=O)n3C)CC2)c(C)n1 [Example 495],0.5 to 2
5,C[C@@H](Nc1ccccc1C(=O)O)c1cc(F)cc2c(=O)n(C)c(-c3cc(F)c4nn(C(F)F)cc4c3)cc12 [Example 496],> 15
6,C[C@@H](Nc1ccccc1C(=O)O)c1cc(F)cc2c(=O)n(C)c(-c3ccc(OC4CC4)nc3)cc12 [Example 497],> 15
7,CC(=O)N1CCN(c2cc3c([C@@H](C)Nc4ccccc4C(=O)O)cc(C)cc3c(=O)n2C)CC1 [Example 498],> 15

# Same assay, conditions: cellular pAKT, 6 hours
row,SMILES,IC50 [µM]
1,CC(Nc1ccccc1C(=O)O)c1cc(F)cc2c(=O)n(C)c(-c3ccc(OC4CC(F)C4)nc3)cc12 (stereo not shown) [Example 447],> 15
2,CC(Nc1ccccc1C(=O)O)c1cc(F)cc2c(=O)n(C)c(-c3ccc(OC4CC(F)C4)nc3)cc12 (stereo not shown) [Example 448],> 15
3,CC(Nc1cccc(F)c1C(=O)O)c1cc(F)cc2c(=O)n(C)c(-c3ccc(OCC(F)F)nc3)cc12 (stereo not shown) [Example 457],> 15
4,Cc1ncc(-c2ncc(-c3cc4c(C(C)Nc5ccccc5C(=O)O)cc(F)cc4c(=O)n3C)cc2F)cc1F (stereo not shown) [Example 459],2 to 15
5,Cc1ccc(N2CCN(c3cc4c(C(C)Nc5ccccc5C(=O)O)cc(F)cc4c(=O)n3C)CC2)c(C)n1 (stereo not shown) [Example 460],0.5 to 2
6,CC(Nc1ccccc1C(=O)O)c1cc(F)cc2c(=O)n(C)c(-c3ccc(OCC(F)F)nc3)cc12 (stereo not shown) [Example 462],> 15
7,Cc1nc(C)c(-c2ncc(-c3cc4c(C(C)Nc5ccccc5C(=O)O)cc(F)cc4c(=O)n3C)cc2F)cc1F (stereo not shown) [Example 471],2 to 15
8,Cc1ccc(-c2ncc(-c3cc4c(C(C)Nc5ccccc5C(=O)O)cc(F)cc4c(=O)n3C)cc2F)cn1 (stereo not shown) [Example 473],2 to 15
9,Cc1cc(C(C)Nc2cccc(F)c2C(=O)O)c2cc(-c3ccc(COC(F)(F)F)nc3)n(C)c(=O)c2c1 (stereo not shown) [Example 474],> 15
